The text below walks through data of US8536354B2, “Steroidal ligands and their use in gene switch modulation” (Intrexon Corporation, priority 2008, dated 2013).

Assay [1] deals with wild-type Drosophila melanogaster EcR (DmEcR; GAL4-EcR DEF with VP16-RXR-USP chimera) (Drosophila melanogaster, UniProt P34021). As to the kind of experiment: Two-hybrid gene switch assay, luciferase reporter, wild-type DmEcR, mouse NIH3T3 cells. It is filed as cell-based. (Reporter assays use an easily measured gene product as a stand-in for the process of interest.)
Assay [2] addresses T1, MsEcR (GAL4-EcR DEF with VP16-RXR-USP chimera) (Manduca sexta, UniProt P49883).
T1 sequence (P49883 1-556): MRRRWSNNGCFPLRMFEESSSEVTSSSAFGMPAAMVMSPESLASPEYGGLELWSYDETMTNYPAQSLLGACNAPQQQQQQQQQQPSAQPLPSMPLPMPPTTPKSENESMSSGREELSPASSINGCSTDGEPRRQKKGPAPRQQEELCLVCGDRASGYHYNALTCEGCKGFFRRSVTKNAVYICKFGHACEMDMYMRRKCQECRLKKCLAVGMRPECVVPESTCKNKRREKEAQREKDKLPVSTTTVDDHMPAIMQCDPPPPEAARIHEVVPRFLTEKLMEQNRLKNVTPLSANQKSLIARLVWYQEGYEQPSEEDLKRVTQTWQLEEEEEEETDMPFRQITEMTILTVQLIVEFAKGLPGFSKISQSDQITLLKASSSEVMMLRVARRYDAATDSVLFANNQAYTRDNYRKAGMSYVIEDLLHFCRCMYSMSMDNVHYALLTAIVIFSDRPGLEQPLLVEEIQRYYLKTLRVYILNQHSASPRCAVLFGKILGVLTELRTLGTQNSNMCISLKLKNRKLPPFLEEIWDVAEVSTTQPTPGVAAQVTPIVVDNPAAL
T1 sequence (P28702 1-533 partner): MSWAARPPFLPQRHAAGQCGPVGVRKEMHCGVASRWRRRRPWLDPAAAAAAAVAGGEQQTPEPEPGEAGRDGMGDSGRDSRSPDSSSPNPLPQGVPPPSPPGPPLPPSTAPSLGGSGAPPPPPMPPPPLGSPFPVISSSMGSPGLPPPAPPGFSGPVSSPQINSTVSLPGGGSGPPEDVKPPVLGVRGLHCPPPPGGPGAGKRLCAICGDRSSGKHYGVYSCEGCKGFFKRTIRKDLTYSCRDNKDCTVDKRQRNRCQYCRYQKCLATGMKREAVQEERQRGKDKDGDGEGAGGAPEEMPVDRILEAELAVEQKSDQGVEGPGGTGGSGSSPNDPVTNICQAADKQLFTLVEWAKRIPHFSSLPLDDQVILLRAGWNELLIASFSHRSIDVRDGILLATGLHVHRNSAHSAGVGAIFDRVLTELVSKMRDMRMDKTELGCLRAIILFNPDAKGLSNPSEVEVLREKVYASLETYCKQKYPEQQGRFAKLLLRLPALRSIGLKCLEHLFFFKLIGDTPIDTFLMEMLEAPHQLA
Description: Two-hybrid gene switch assay, luciferase reporter, MsEcR, mouse NIH3T3 cells.

Assay [3] deals with T2, BaEcR (GAL4-EcR DEF with VP16-RXR-USP chimera) (Bemisia tabaci, UniProt A0A6M3RDR8).
T2 sequence (A0A6M3RDR8 115-530): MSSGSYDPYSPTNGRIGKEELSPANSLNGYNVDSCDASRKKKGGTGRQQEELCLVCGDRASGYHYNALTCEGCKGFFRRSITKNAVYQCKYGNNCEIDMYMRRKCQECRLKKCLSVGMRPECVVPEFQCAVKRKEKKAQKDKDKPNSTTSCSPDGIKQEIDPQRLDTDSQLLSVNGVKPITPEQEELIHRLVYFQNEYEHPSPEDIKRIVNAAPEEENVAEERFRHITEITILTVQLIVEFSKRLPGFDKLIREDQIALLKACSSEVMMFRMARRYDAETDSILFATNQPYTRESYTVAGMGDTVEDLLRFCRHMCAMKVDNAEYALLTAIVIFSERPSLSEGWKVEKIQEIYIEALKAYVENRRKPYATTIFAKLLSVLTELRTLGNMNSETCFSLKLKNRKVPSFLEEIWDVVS
T2 sequence (P28702 1-533 partner): T1 sequence (P28702 1-533 partner)
As to the kind of experiment: Two-hybrid gene switch assay, luciferase reporter, BaEcR, mouse NIH3T3 cells. To be noted: EC50, FIG. 14A/14B, GAL4-EcR(DEF) with VP16-RXR-USP chimera.

Assay [4] relates to NcEcR (GAL4-EcR DEF with VP16-RXR partner). As to the kind of experiment: Two-hybrid gene switch assay, luciferase reporter, NcEcR, mouse NIH3T3 cells.
The target of assay [5] is T3, AmaEcR (GAL4-EcR DEF with VP16-RXR-USP chimera) (Amblyomma americanum, UniProt O44338).
T3 sequence (O44338 255-570): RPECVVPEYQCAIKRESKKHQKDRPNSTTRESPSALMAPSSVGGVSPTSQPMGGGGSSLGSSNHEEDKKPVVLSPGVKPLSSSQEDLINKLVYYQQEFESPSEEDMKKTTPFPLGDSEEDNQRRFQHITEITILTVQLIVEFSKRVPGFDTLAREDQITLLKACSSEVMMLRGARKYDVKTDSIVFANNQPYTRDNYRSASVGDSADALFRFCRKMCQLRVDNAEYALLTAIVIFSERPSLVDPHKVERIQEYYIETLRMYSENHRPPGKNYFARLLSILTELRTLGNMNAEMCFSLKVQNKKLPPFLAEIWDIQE
T3 sequence (P28702 1-533 partner): T1 sequence (P28702 1-533 partner)
Description: Two-hybrid gene switch assay, luciferase reporter, AmaEcR, mouse NIH3T3 cells.

Assay [6] has as its target T4, wild-type CfEcR (GAL4-CfEcR-DEF with VP16-RXR-USP chimera) (Choristoneura fumiferana, UniProt O77255).
T4 sequence (O77255 219-541): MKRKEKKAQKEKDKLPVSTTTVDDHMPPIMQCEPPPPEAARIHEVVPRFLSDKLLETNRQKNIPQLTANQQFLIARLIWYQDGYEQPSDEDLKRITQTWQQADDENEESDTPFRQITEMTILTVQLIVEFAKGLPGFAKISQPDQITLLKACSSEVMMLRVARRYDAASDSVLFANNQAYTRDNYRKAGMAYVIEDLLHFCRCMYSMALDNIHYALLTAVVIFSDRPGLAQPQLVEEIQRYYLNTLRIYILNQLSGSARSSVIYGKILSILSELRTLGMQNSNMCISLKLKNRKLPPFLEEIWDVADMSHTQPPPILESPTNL
T4 sequence (P28702 1-533 partner): T1 sequence (P28702 1-533 partner)
As to the kind of experiment: Two-hybrid gene switch assay, luciferase reporter, wild-type CfEcR, mouse NIH3T3 cells.

Assay [7] concerns the target BmEcR (GAL4-EcR DEF with VP16-RXR-USP chimera) (Bombyx mori, UniProt P49881). As to the kind of experiment: Two-hybrid gene switch assay, luciferase reporter, BmEcR, mouse NIH3T3 cells. The assay is classed as cell-based.
Setting [8] is: EC50, FIG. 14A/14B, GAL4-EcR(DEF) with VP16-RXR-USP chimera.
Where [9] appears, read: EC50, FIG. 13A/13B, GAL4-EcR(DEF) with VP16-RXR-USP chimera.
Setting [10] is: EC50, FIG. 13A/13B, BmEcR, GAL4-EcR(DEF) with VP16-RXR-USP chimera.
The mark [11] stands for this setting: EC50, FIG. 16, GAL4-EcR (DEF) / VP16-RXR-USP chimera.

pEC50: −log10 of the molar value. Where two headings read alike, the source gives them in different places.

BmEcR (GAL4-EcR DEF with VP16-RXR-USP chimera), sequence (P49881 other isoform, or with tags, fused parts or gaps, change not shown): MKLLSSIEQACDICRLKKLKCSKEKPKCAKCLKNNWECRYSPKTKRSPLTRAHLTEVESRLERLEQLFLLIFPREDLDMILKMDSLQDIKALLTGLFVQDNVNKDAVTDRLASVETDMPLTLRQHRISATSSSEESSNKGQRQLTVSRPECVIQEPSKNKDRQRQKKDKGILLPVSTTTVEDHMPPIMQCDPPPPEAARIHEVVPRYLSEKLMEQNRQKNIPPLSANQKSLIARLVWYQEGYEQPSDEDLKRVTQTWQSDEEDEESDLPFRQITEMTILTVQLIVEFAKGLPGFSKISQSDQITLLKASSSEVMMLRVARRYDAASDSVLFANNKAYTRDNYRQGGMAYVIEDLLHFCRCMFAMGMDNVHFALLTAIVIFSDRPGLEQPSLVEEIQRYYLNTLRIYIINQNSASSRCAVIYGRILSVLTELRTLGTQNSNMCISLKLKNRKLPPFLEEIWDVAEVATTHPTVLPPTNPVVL
wild-type Drosophila melanogaster EcR (DmEcR; GAL4-EcR DEF with VP16-RXR-USP chimera), sequence (P34021 with tags, fused parts or gaps limits assumed): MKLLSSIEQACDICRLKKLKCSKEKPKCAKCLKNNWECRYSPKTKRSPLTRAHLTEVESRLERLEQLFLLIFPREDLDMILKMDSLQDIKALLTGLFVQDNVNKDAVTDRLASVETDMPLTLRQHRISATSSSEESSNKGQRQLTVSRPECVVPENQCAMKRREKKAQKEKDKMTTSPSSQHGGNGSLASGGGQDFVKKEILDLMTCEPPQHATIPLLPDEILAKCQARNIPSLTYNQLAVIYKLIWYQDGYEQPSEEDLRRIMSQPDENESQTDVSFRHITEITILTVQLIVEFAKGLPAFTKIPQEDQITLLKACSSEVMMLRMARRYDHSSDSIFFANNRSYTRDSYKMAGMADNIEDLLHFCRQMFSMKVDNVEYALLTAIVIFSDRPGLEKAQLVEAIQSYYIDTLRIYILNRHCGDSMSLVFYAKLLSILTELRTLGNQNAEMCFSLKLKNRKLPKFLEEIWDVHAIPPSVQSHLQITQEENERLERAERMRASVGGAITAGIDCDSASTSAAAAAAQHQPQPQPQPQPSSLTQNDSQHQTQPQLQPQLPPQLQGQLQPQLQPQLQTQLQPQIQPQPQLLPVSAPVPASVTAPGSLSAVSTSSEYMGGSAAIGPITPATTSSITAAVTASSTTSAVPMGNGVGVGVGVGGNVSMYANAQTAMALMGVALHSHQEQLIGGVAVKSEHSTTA

As to `C[C@@H]1C(=O)O[C@H](C)[C@H]1C[C@@H](O)[C@](C)(O)[C@H]1CC[C@@]2(O)C3=CC(=O)[C@@H]4C[C@@H](O)[C@@H](O)C[C@]4(C)[C@H]3CC[C@]12C` [cyasterone], the pEC50 (usually −log10 of the EC50, conventionally taken in molar units) in assay [1] (setting [8]) was below 4.48; in assay [2] (setting [9]), 5.81; in assay [3], around 5.00; in assay [4] (FIG. 14A/14B, GAL4-EcR(DEF)), 5.74; in assay [5] (setting [8]), around 6.52; in assay [6], around 6.00.

In the case of `CCCCCCCCCC(=O)OC1CC2(C)C(C(C)(O)C(O)CCC(C)(C)O)CCC2(O)C2=CC(=O)C3CC(O)C(O)CC3(C)C21` (centres unmarked) [turkesterone-11a-decanoate], the pEC50 in assay [1] (setting [8]) was below 4.48; in assay [7] (setting [10]), below 4.48; in assay [2] (setting [9]), below 4.48; in assay [3], below 4.48; in assay [4] (FIG. 14A/14B, GAL4-EcR(DEF)), below 4.48; in assay [5] (setting [8]), below 4.48. Moreover, in assay [6], the pEC50 was below 4.48.

Turning to `CC(C)(O)CCC(=O)[C@](C)(O)[C@H]1CC[C@@]2(O)C3=CC(=O)[C@@H]4C[C@@H](O)[C@@H](O)C[C@]4(C)[C@H]3CC[C@]12C` [Compound 22-dehydro-20-hydroxyecdysone], the pEC50 in assay [1] (setting [8]) was around 4.70; in assay [7], below 4.48; in assay [2] (setting [9]), 4.99; in assay [3], around 4.92; in assay [4] (FIG. 14A/14B, GAL4-EcR(DEF)) it was 5.73; in assay [5] (setting [8]) it was around 5.15. In assay [6], this compound had a negative-log EC50 (pEC50) below 4.48.

As for `CC(C)(O)CC[C@@H](O)[C@](C)(O)[C@H]1CC[C@@]2(O)C3=CC(=O)[C@]4(O)C[C@@H](O)[C@@H](O)C[C@]4(C)[C@H]3CC[C@]12C` [polypodine B], the negative logarithm of the EC50 (pEC50) in assay [1] (setting [8]) is around 5.70; in assay [1] (setting [11]), 5.60; in assay [7] (setting [10]), around 5.10; in assay [7] (EC50, FIG. 15, BmEcR, GAL4-EcR (DEF) / VP16-RXR-USP chimera) it was around 5.05; in assay [2] (setting [9]), around 5.70; in assay [2] (EC50, FIG. 15, GAL4-EcR (DEF) / VP16-RXR-USP chimera), 5.36. Besides, the pEC50 in assay [3] was around 5.48; in assay [4] (FIG. 14A/14B, GAL4-EcR(DEF)) it was around 7.00; in assay [4] (FIG. 16, GAL4-EcR (DEF)) it was 7.30; in assay [5] (setting [8]), around 5.48; in assay [5] (setting [11]), around 6.52; in assay [6], around 4.70.

With `CC(C)(O)CC[C@@H](O)[C@](C)(O)[C@H]1CC[C@@]2(O)C3=CC(=O)[C@@H]4C[C@@H](O)[C@@H](O)C[C@]4(C)C3=CC[C@]12C` [Compound 25-hydroxydacryhainansterone], the pEC50 is below 4.48 in assay [1] (setting [8]); below 4.48 in assay [7]; around 5.00 in assay [2] (setting [9]); around 4.82 in assay [3]; 5.90 in assay [4] (FIG. 14A/14B, GAL4-EcR(DEF)); around 5.48 in assay [5] (setting [8]). The compound further showed a pEC50 in assay [6] below 4.48.

In the case of `CC(C)(O)CC[C@@H](O)[C@](C)(O)[C@H]1CC[C@@]2(O)C3=C[C@@H](O)[C@@H]4C[C@@H](O)[C@@H](O)C[C@]4(C)[C@H]3CC[C@]12C` [Compound 6b-hydroxy-20-hydroxyecdysone], the negative logarithm of the EC50 (pEC50) in assay [1] (setting [8]) is around 4.70; in assay [7], below 4.48; in assay [2] (setting [9]), around 4.92; in assay [3], around 4.70; in assay [4] (FIG. 14A/14B, GAL4-EcR(DEF)), 5.77; in assay [5] (setting [8]), around 5.48. The compound further had a negative logarithm of the EC50 (pEC50) in assay [6] below 4.48.

Consider `CC(C)(O)CC[C@@H](OC(=O)c1ccc[nH]1)[C@](C)(O)[C@H]1CC[C@@]2(O)C3=CC(=O)[C@@H]4C[C@@H](O)[C@@H](O)C[C@]4(C)[C@H]3CC[C@]12C`, for which the pEC50 in assay [1] (setting [8]) is around 4.70; in assay [7], below 4.48; in assay [2] (setting [9]), below 4.48; in assay [3], around 4.82; in assay [4] (FIG. 14A/14B, GAL4-EcR(DEF)) it was around 5.30; in assay [5] (setting [8]), around 5.30. In assay [6], the pEC50 was below 4.48.

As to `CC(C)(O)CC[C@@H](O)[C@](C)(O)[C@H]1CC[C@@]2(O)C3=CC(=O)[C@@H]4C[C@H]5OC(C)(C)O[C@H]5C[C@]4(C)[C@H]3CC[C@]12C` [20-hydroxyecdysone-2,3-acetonide], the negative logarithm of the EC50 (pEC50) in assay [1] (setting [8]) was below 4.48; in assay [7], below 4.48; in assay [2] (setting [9]) it was around 5.00; in assay [3], around 4.82; in assay [4] (FIG. 14A/14B, GAL4-EcR(DEF)), 5.54; in assay [5] (setting [8]), around 5.15. The same compound had a pEC50 in assay [6] below 4.48.

As for `CC(C)(O)C(CCC(C)(O)C1CCC2(O)C3=CC(=O)C4CC(O)C(O)CC4(C)C3CCC12C)OC(=O)c1ccc[nH]1` (centres unmarked) [canescensterone], the negative-log EC50 (pEC50) in assay [1] (setting [8]) was around 6.30; in assay [7] it was below 5.00; in assay [2] (setting [9]), below 5.00; in assay [3] it was around 6.70; in assay [4] (FIG. 14A/14B, GAL4-EcR(DEF)), around 6.48; in assay [5] (setting [8]) it was around 6.52. The same compound gave a pEC50 in assay [6] below 5.00.

`CCC(CC(O)C(C)(O)C1CCC2(O)C3=CC(=O)C4CC(O)C(O)CC4(C)C3CCC12C)C(C)(C)O` (centres unmarked) [makisterone C]: the pEC50 in assay [1] (setting [8]) is around 5.30; in assay [7] (read-out: EC50), below 4.48; in assay [2] (setting [9]), around 5.40; in assay [3], around 5.48; in assay [4] (FIG. 14A/14B, GAL4-EcR(DEF)) it was around 7.00; in assay [5] (setting [8]), around 5.70. In addition, the pEC50 in assay [6] was below 4.48.
